From patent US20250314665A1, “BIOMARKERS FOR CEREBRAL METABOLIC DISORDERS, AND DIAGNOSTIC METHODS USING THEREOF” (COMMISSARIAT A L'ENERGIE ATOMIQUE ET AUX ENERGIES …, priority 2022, published 2025)
“Also recorded” adds a separate entry of the source.

Columns and labels:
Type in all cases: in vivo, mouse
CrT KO mice [1] = experiment: Object recognition test (ORT) in DCE-treated CrT KO mice
Experimental: (§1) Treatment continued during behavioral testing, which took two weeks, for a total of 30 days of treatment. The testing order for behavioral assessment performed in the same mice consisted of: object recognition test (ORT) 24 h (3 days), Y maze (1 day), Morris water maze (MWM) with hidden platform (7 days).
The day before testing, mice were familiarized with the empty arena for 10 min. The object recognition test (ORT), which is based on the spontaneous tendency of rodents to spend more time exploring a novel object than a familiar one, measures short- and long-term memory and consists of a sample and a testing phase. During the sample phase, mice were placed in the arena with two identical objects placed in diagonally opposite corners of the arena (about 6 cm from the walls) for 10 min. The test phase was 24 hours after the sample phase. Mice were returned to the arena with an identical copy of one of the familiar objects and a new object placed in the same position. The mice explored the objects for 5 min.
(§2) DCE was intranasally administered (Ullio-Gamboa G, et al. Dodecyl creatine ester-loaded nanoemulsion as a promising therapy for creatine transporter deficiency. Nanomedicine 14, 1579-1593 (2019)) to Slc6a8^−/y for 30 days, once a day at 4 mg/g of body weight, whilst the control groups were wild-type (WT) and vehicle-treated (Veh) Slc6a8^−/y mice, at N=8/group. Cognitive performance was evaluated using the object recognition test, the Y-maze, and the Morris water maze (MWM). Then, proteomics was performed on four different brain regions: cortex, hippocampus, cerebellum and brainstem; and the key protein abundances were correlated with behavioral performance, identifying several mechanistic pathways.

CrT KO mice [2] = experiment: Y maze spontaneous alternation in DCE-treated CrT KO mice
Experimental: as §1
Mice were placed in the center of the maze and movement was recorded for 8 min. The number of arm entries (all four limbs within the arm) and the number of triads (three arm entries) were video-recorded in order to calculate the alternation percentage defined as the number of triads divided by the number of possible alternations (total arm entries minus 2) and then multiplying by 100.
as §2

CrT KO mice [3] = experiment: Morris water maze (MWM) in DCE-treated CrT KO mice; conditions: DCE intranasal 4 mg/g once a day; hidden platform, 7 days
Experimental: as §1
Mice were trained for 4 trials per day and for a total of 7 days in a circular water tank (diameter, 120 cm; height, 40 cm), filled with water (23° C.) rendered opaque by the addition of a non-toxic white paint to a depth of 25 cm. […] Mice were allowed up to 60 s to reach the escape platform, and their swimming paths were automatically recorded by the Noldus Ethovision system. On the last trial of the last training day, mice received a probe trial, during which the escape platform was removed from the tank and the swimming paths were recorded over 60 s while mice searched for the missing platform
DCE was intranasally administered (Ullio-Gamboa G, et al. Dodecyl creatine ester-loaded nanoemulsion as a promising therapy for creatine transporter deficiency. Nanomedicine 14, 1579-1593 (2019)) to Slc6a8^−/y for 30 days, once a day at 4 mg/g of body weight, whilst the control groups were wild-type (WT) and vehicle-treated (Veh) Slc6a8^−/y mice, at N=8/group. Cognitive performance was evaluated using the object recognition test, the Y-maze, and the Morris water maze (MWM). […]

CrT KO mice [4] = experiment: Label-free shotgun proteomics of brain regions after DCE treatment
Experimental: Total protein (15 μg) was extracted from different brain regions and mixed with lithium dodecyl sulfate lysis buffer (Invitrogen) and incubated at 99° C. for 5 min, and then separated by a short electrophoresis migration (5 min) at 200 V on NuPAGE 4-12% Bis-Tris gel with MES/SDS 1× (Invitrogen) as running buffer. Gels were stained with SimplyBlue SafeStain (Thermo) for 5 min followed by an overnight wash in water with gentle agitation. The polyacrylamide band containing the whole proteome from each sample was excised and treated as recommended (Hartmann E M, Armengaud J. N-terminomics and proteogenomics, getting off to a good start. Proteomics 14, 2637-2646 (2014)). Proteins were in-gel proteolyzed with trypsin gold (Promega) in the presence of 0.01% of Protease Max surfactant (Promega) at 50° C. for 60 min. From the resulting peptide fraction (50 μL), a volume of 1 μL corresponding to approximately 300 ng of peptides was analyzed by liquid chromatography-tandem mass spectrometry (LC-MS/MS) using an Ultimate 3000 nano-LC system coupled to a Q-Exactive HF mass spectrometer (Thermo Scientific) operated as described previously (Hartmann E M, Armengaud J. N-terminomics and proteogenomics, getting off to a good start. Proteomics 14, 2637-2646 (2014)). Peptides were loaded on a reverse-phase PepMap 100 C18 μ-precolumn (5 μm, 100 Å, 300 μm i.d.×5 mm, Thermo Fisher), and then resolved on a nanoscale PepMap 100 C18 nanoLC column (3 μm, 100 Å, 75 μm i.d.×50 cm, Thermo Fisher) at a flow rate of 0.2 μL·min^−1 using a 90-min gradient (4% B for 0 to 3 min, 4-25% B from 3 to 78 min and 25-40% B from 78 to 93 min) with mobile phase A corresponding to 0.1% HCOOH/100% H2O and mobile phase B corresponding to 0.1% HCOOH/80% CH3CN/20% H2O). The mass spectrometer was operated in Top20 mode, with a scan range of MS acquisition from 350 to 1800 m/z and selection and fragmentation using a 10 s dynamic exclusion time for the 20 most abundant precursor ions. Only ion precursors with a 2+ or 3+ charge were selected for High-energy collisional dissociation (HCD) fragmentation performed at a normalized collision energy of 27 eV.
MS/MS spectra were assigned using the Mascot Daemon software version 2.6.1 (Matrix Science) and the Mus musculus SwissProt database comprising 17,096 protein sequences. Peptide tolerance, MS/MS fragment tolerance, and the maximum of missed cleavages were set at 5 ppm, 0.02 D and 2, respectively. Carbamidomethylation of cysteine was considered as fixed modification. Oxidation of methionine was taken into account as variable modification. Peptides identified at a p-value≤0.05 in homology threshold mode and proteins identified with at least two distinct peptides were selected (false discovery rate below 1%).
In-house script was constructed, using R programming language, to identify the differentially expressed proteins between the […] four different regions of the brain: cortex, cerebellum, hippocampus and brainstem. Initially, the proteomics data were normalized using the Variance Stabilizing Normalization (Motakis E S, Nason G P, Fryzlewicz P, Rutter G A. Variance stabilization and normalization for one-color microarray data using a data-driven multiscale approach. Bioinformatics 22, 2547-2553 (2006)). Proteins with at least 10 MS/MS spectra across all conditions were retained. Unsupervised variation filter was then applied to the proteomics data (Hamoudi R A, et al. Differential expression of NF-kappaB target genes in MALT lymphoma with and without chromosome translocation: insights into molecular mechanism. Leukemia 24, 1487-1497 (2010)) where any 8 samples with MS/MS detected protein were included. […]

CrT KO mice [5] = experiment: Western blotting of dissected brain tissue after DCE treatment
Experimental: Western blotting was used to detect the abundance of PLCB1 and the two inhibitors of NFkB, IKBα and IKBβ, in the dissected brain tissue. Briefly, brain tissue was homogenized in freshly prepared lysis buffer containing 20 mM Trizma-Base, 150 mM NaCl, pH 7.4 (Sigma-Aldrich, Saint-Quentin Fallavier, France) and supplemented with 1% Triton X-100, 4% of complete Protease Inhibitor Cocktail and 20% of a mix of anti-phosphatase inhibitors using a Precellys Evolution tissue homogenizer. The samples were then centrifuged first at 2500×g (15 min) and then at 10 000×g (20 min) on homogenates to produce lysate for electrophoresis. Proteins (10 to 20 μg) and protein standard in Laemmli buffer were loaded on 4%-15% CRITERION TGX STAIN-FREE protein gel in running buffer TGS 1×(all from Bio-Rad, Marnes-la-Coquette, France) and transferred to a 0.2 μm PVDF membrane with the Trans-Blot Turbo RTA Midi Transfer Kit (Bio-Rad, Marnes-la-Coquette, France). Membranes were blocked for 30 min in 5% low-fat milk in TBS-Tween 20 0.1% at room temperature. Blots were probed with specific primary antibodies overnight at 4° C. and detected by horseradish peroxidase secondary antibodies diluted 1:5 000 or 1:50 000 in 5% low-fat milk in TBS-Tween 20 0.1% at room temperature. For protein detection, membranes were exposed to the ECL prime Western blotting system (Amersham, UK) or Clarity western ECL substrate in a chemidoc touch imaging system for a measurable exposure time (Bio-Rad, Marnes-la-Coquette, France) and quantified with Image Lab Software (Bio-Rad, Marnes-la-Coquette, France). The following antibodies and dilutions were used: anti-PLCB1 (1/1000, Abcam, ab182359), anti-IKBα (1/500, Cell Signaling Technology, 4812S), anti-IKBβ (1/500, Cell Signaling Technology, 15519S), anti-PSD95 (1/2000, Merck, MABN68), and anti-tubulin (1/2000, Sigma-Aldrich, T6199), anti-KIF1A (1/1000, Abcam, ab180153).
as §2

For `CCCCCCCCCCCCOC(=O)CN(C)C(=N)N` [DCE, dodecyl creatine ester], the “time observing the novel object, DCE-treated vs vehicle-treated CrT KO mice” value (CrT KO mice [1]; ORT 24 h, DCE intranasal once a day 4 mg/g body weight, 30 days, N=8/group, one-way ANOVA p<0.01, Tukey p<0.05) was “more time”, the “median time (novel object) of DCE-treated group as % of the WT median value” (CrT KO mice [1]; ORT, DCE intranasal 4 mg/g once a day) was 96% and the “observation time of novel object compared with WT mice” value (CrT KO mice [1]; ORT, DCE intranasal 4 mg/g once a day, p=0.406) was “no difference”. The “object discrimination index / percent time with the novel object (FIG. 2A, 2B)” value (CrT KO mice [1]; ORT, WT and DCE-treated, but not vehicle-treated KO mice) was “preference for the novel object”, the “spontaneous alternation performance in Y-maze vs vehicle CrT KO mice” value (CrT KO mice [2]; DCE intranasal 4 mg/g once a day) was “higher; also recorded: significantly improved” and the “alternation rate in Y-maze vs WT mice” value (CrT KO mice [2]; DCE-treated CrT KO mice, P=0.058) was “did not differ”. For the same compound, the “median alternation rate in Y-maze” value (CrT KO mice [2]; DCE-treated CrT KO mice, vehicle 48%, WT 62%, P=0.058 vs WT) was 86%, the “memory abilities in MWM” value (CrT KO mice [3]) was “No positive effects” and the “presynaptic IgSF8 protein abundance” value (CrT KO mice [4]; brain cortex) was “significantly upregulated”. For the same compound, the “ANK1 abundance (downregulated in vehicle CrT KO mice), effect of DCE treatment” value (CrT KO mice [4]; cerebellum) was “significantly rescued”, the “ANXA5 abundance (downregulated in vehicle CrT KO mice), effect of DCE treatment” value (CrT KO mice [4]; cerebellum) was “significantly rescued” and the “FABP7 abundance (upregulated in CrT KO mice), DCE-treated CrT KO vs WT” value (CrT KO mice [4]; cerebellum) was “unchanged”. For the same compound, the “LMNB1 abundance (upregulated in CrT KO mice), DCE-treated CrT KO vs WT” value (CrT KO mice [4]; cerebellum) was “unchanged”, the “MeCP2 abundance (downregulated in vehicle CrT KO mice), effect of DCE treatment” value (CrT KO mice [4]; cerebellum) was “significantly rescued” and the “PURB abundance (upregulated in CrT KO mice), DCE-treated CrT KO vs WT” value (CrT KO mice [4]; cerebellum) was “unchanged”. The “DCLK1 abundance (upregulated in CrT KO mice), DCE-treated CrT KO vs WT” value (CrT KO mice [4]; cortex) was “unchanged”, the “NCAM1 abundance (upregulated in CrT KO mice), DCE-treated CrT KO vs WT” value (CrT KO mice [4]; cortex) was “unchanged” and the “PI4KA abundance (upregulated in CrT KO mice), DCE-treated CrT KO vs WT” value (CrT KO mice [4]; cortex) was “unchanged”. For the same compound, the “PLCB1 abundance (downregulated in vehicle CrT KO mice), effect of DCE treatment” value (CrT KO mice [4]; cortex) was “significantly rescued”, the “PURB abundance (upregulated in CrT KO mice), DCE-treated CrT KO vs WT” value (CrT KO mice [4]; cortex) was “unchanged” and the “IGSF8 abundance (downregulated in vehicle CrT KO mice), effect of DCE treatment” value (CrT KO mice [4]; hippocampus) was “significantly rescued”. For the same compound, the “KIF1A abundance (upregulated in CrT KO mice), DCE-treated CrT KO vs WT” value (CrT KO mice [4]; hippocampus) was “unchanged”, the “L1CAM abundance (upregulated in CrT KO mice), DCE-treated CrT KO vs WT” value (CrT KO mice [4]; hippocampus) was “unchanged” and the “NCAM1 abundance (upregulated in CrT KO mice), DCE-treated CrT KO vs WT” value (CrT KO mice [4]; hippocampus) was “unchanged”. The “PLCB1 protein abundance by Western blot” value (CrT KO mice [5]; brain cortex, DCE-treated CrT KO mice, p=0.0004) was “significant increase; also recorded: significantly increased”, the “IκBα protein level by Western blot” value (CrT KO mice [5]; brain cortex, DCE-treated CrT KO mice, p=0.008) was “reconstituted; also recorded: promotes” and the “postsynaptic density protein PSD95 by Western blot” value (CrT KO mice [5]; brain cortex, p=0.0096) was “significantly upregulated”. For the same compound, the “KIF1A by Western blot (overexpressed in vehicle CrT KO mice)” value (“KIF1A by Western blot” for short) (CrT KO mice [5]; cerebellum) was “rescued this overexpression”, the “PLCB1 protein abundance by Western blot” value (CrT KO mice [5]; cerebellum, DCE-treated CrT KO mice) was “significantly increased” and the “KIF1A by Western blot” value (CrT KO mice [5]; cortex) was “rescued this overexpression”. The “Pro-BDNF/BDNF level by Western blot” value (CrT KO mice [5]; cortex, p=0.0043) was “higher”, the “KIF1A by Western blot” value (CrT KO mice [5]; hippocampus) was “rescued this overexpression” and the “PLCB1 protein abundance by Western blot” value (CrT KO mice [5]; hippocampus, DCE-treated CrT KO mice) was “significantly increased”.
